The record followed here is patent publication US11685726B2, “Pharmaceutical compositions of 6-(2-(2H-tetrazol-5-yl)ethyl)-6-fluorodecahydroisoquinoline-3-carboxylic acid and ester derivatives thereof” (Sea Pharmaceuticals LLC, priority 2020, dated 2023).

One series relates to NMDA receptor. The series is described as follows: Whole cell patch-clamp recording of NMDA induced currents in pyramidal neurons of rat brain prefrontal cortex slices. As to conditions: Tested at 30 pM (so in the source); 50 μM NMDA; rat brain cortex slices. In kind it is cell-based. As to the method: Additionally biological activity of compounds as antagonists of AMPA receptors or NMDA receptors (also called ionotropic glutamate-gated ion channels) were conducted using ex vivo functional electrophysiological assays of pyramidal neurons in slices of rat brain prefrontal cortex. Effects of test compounds cf. reference compounds were studied by whole cell patch-clamp electrophysiology recordings of s-AMPA-induced currents or NMDA-induced currents, respectively, using rat brain slice prefrontal cortex (layer V) pyramidal neurons.
Male Sprague Dawley rats were supplied by Charles River Laboratories (Wilmington, Mass. USA) and were housed 4 per cage within a temperature (20.5-23.5° C.) and humidity (30-80%) controlled environment on a 12 hour light/dark cycle with access to food (Teklad Global Soy Protein, Cat. No. T.2920X10, Envigo, Indianapolis, Ind., USA) and water ad libitum. […]
All test compound experiments were carried out in the voltage-clamp recording configuration of the whole cell patch-clamp technique and all recordings performed at a holding potential of −60 mV. Recordings were monitored on a Dell personal computer (PC) running Axon pClamp software (Molecular Devices, Sunnyvale, Calif., USA) and digitized at 10 kHz. […]
For orientation: The patch-clamp technique gives a direct electrical read-out from membranes.

Series [1] can be described thus: In vitro stability in physiological buffers with or without fatty acid free BSA. It counts as physicochemical. As to conditions: 30 minutes at 37 degrees C.

For `O=C(O)[C@@H]1C[C@H]2C[C@@](F)(CCc3nnn[nH]3)CC[C@H]2CN1` [Compound 1, (3S,4aS,6S,8aR)-6-fluoro-6-[2-(1H-1,2,3,4-tetrazol-5-yl)ethyl]-decahydroisoquinoline-3-carboxylic acid], the “% inhibition +/- SEM of NMDA induced currents in neurons” value in the series on NMDA receptor is 61.0 ± 6.3 (n = 3) %.

For `O=C(O)[C@@H]1C[C@H]2CC(F)(CCc3nnn[nH]3)CC[C@H]2CN1` (stereo in doubt) [Compound 2, (3S,4aS,6R,8aR)-6-fluoro-6-[2-(1H-1,2,3,4-tetrazol-5-yl)ethyl]-decahydroisoquinoline-3-carboxylic acid], in series [1], the “stability in physiological buffers” value is “stable”.
